Consider 2 molecules from patent US20060167106A1, “Compounds acting at the centrosome” (priority 2004, published 2006).

In test [1] the target is T1, bovine red blood cell 20S proteasome (Bos taurus, UniProt Q32KL2).
T1 construct: bovine red blood cell 20S proteasome; purchased Calbiochem; host or cells: purified from bovine red blood cells
The experiment in a line: 20S Proteasome Assay (in vitro, Suc-Leu-Val-Tyr-AMC). The note with it: isolated 20S proteasome. It counts as biochemical. Here is the method: 190 μl of reaction buffer (500 mM HEPES, 10 nM EDTA, pH 7.6), containing 0.03% SDS was pre-incubated for 5 minutes at 37° C. in the presence of 0.2 μg of bovine red blood cell 20S proteasome (Calbiochem, San Diego, Calif.) for temperature equilibration. Subsequently, inhibitors or Compound 1 were added to the reaction mixture at a final DMSO concentration of 0.5%. The reaction was initiated by adding 10 μl of the peptide-AMC substrate (Calbiochem, San Diego, Calif.) to each well. The emitted fluorescence was then measured every third minute at 37° C. for 90 minutes by a fluorescence plate reader (FlexStation II, Molecular Devices, Sunnyvale, Calif.) at 460 nm (λex360 nm) wavelength.
The buffers and reagents for the assay were purchased from Calbiochem (20S Proteasome Assay Kit; Calbiochem, San Diego, Calif.). The principle of the assay is that the release of free AMC (7-Amino-4-methylcoumarin) following degradation of the substrate results in a fluorescent signal that is a measure of proteasome activity. The quantitative analysis of 20S proteasome activity was assayed as described.

The test system of test [2] is Hsp70. The experiment in a line: Hsp70 Western blotting in MDA-435 cells. It counts as cell-based. Conditions: 0.5 μM; for induction of Hsp70 expression: 6 and 24 hours; for percentage change in Hsp70 expression relative to DMSO control: normalized to background and GAPDH. As to the method: Calculations of the percentage changes were made by using the automated band analysis tools of the Kodak 1D (v.3.6.3) program. Band intensities were normalized to background and GAPDH.
MDA-435 breast cancer cells were grown in 100 mm plastic-tissue culture dishes and treated for 6 and 24 hours with 0.5 μM Taxol, Compound 1, Taxol+Compound 1, MG132, ALLN, or DMSO. After treatment, cells were washed in PBS and cell lysates were prepared by adding 100 μL of lysis buffer, which contained 20 mM Tris-HCl (pH 7.5), 150 mM NaCl, 1 mM Na2EDTA, 1 mM EGTA, 1% Triton, 2.5 mM sodium pyrophosphate, 1 mM β-glycerophosphate, 1 mM Na3VO4 and 1 μg/ml leupeptin (Cell Signaling Technology, Beverly, Mass.) supplemented with 1 mM PMSF (Sigma, St. Louis, Mo.) immediately before use, on ice for 1 hour. After scraping, the lysates were cleared by centrifugation at 13,000 RPM for 10 minutes at 4° C. Protein content was determined using a Bradford assay and bovine serum albumin as a standard (Bio-Rad Laboratories, Hercules, Calif.). Samples were solubilized by boiling in SDS sample buffer and subjected to SDS-PAGE. The proteins were subsequently transferred to a PVDF membrane (Bio-Rad, Hercules, Calif.). After blocking with 5% nonfat milk in TBS for 1 hour, the blots were incubated with a mouse monoclonal anti-Hsp70 antibody, which is specific for the inducible form of Hsp70 (Clone C92F3A-5, 1:1000 dilution, Stressgen Biotechnologies Corp., Victoria, B.C., Canada) or a rabbit polyclonal anti-GAPDH antibody (1:2000 dilution, Abcam, Cambridge, Mass.) for 2 hours at room temperature. The horseradish-peroxidase-conjugated secondary antibodies, anti-mouse horse radish peroxidase, (1:2000, Bio-Rad, Hercules, Calif.) and goat anti-rabbit polyclonal horse radish peroxidase (1:2000, Abcam, Cambridge, Mass.)) were diluted in blocking buffer and incubated with the blot for 1 hour at room temperature. The secondary antibodies were detected by enhanced chemiluminescence (ECL, Amersham Biosciences, Piscataway, N.J.) and imaged using a Kodak 440 Image Station.

Test [3] has as its system CHO-α-tubulin-YFP cells. In words: α-tubulin-YFP localization in CHO-α-tubulin-YFP cells (fluorescence imaging). It counts as cell-based, Chinese hamster. The note with it: for accumulation of α-tubulin-YFP at the centrosomes: 5 hours; for accumulation of tubulin-YFP at the centrosomes: 24 hours; for accumulation of tubulin in the centrosomes (overall statement): CHO-tubulin-YFP cells, concentration and time not given; for accumulation of tubulin at the centrosomes versus in the nucleus (overall statement): cells treated, concentration not given. An excerpt:
Wild-type Chinese Hamster Ovary cells (WT CHO) cells were maintained in Ham's F-12 medium supplemented with 10% fetal bovine serum (FBS; HyClone, Logan, Utah). Cells of low density (˜20%) growing on 2-well chambered cover-slips (Labtek (Campbell, Calif.) or Fisher Scientific) were transfected with a mammalian expression vector encoding α-tubulin-YFP (Clontech, Palo Alto, Calif.) with the use of FuGENE 6 (Roche Molecular Biochemicals, Indianapolis, Ind.), according to the manufacturer's instructions. Twenty-four hours after transfection, the cells were cultured in 400 μg/ml G418 (Invitrogen, Carlsbad, Calif.)-containing selection medium for 2 weeks. Living cells were examined using a fluorescent microscope for α-tubulin-YFP expression. Cells in single colonies containing microtubules labeled with α-tubulin-YFP were lifted and expanded in G418-containing medium. Expression of α-tubulin-YFP was confirmed by the presence of the tubulin-YFP labeled microtubule pattern identical to immunostained microtubule pattern of non-transfected cells, as well as by subjecting the cells to Western blot analysis using an anti-GFP antibody (Roche Molecular Biochemicals, Basel, Switzerland) and confirming the correct mass of the α-tubulin-YFP chimera protein. Expressed tubulin-YFP was detected as a single band in Western blots. The tubulin-YFP expressing cell lines (referred as CHO-α-tubulin-YFP cells) were used in the studies.
CHO-α-tubulin-YFP cells were cultured in 2-well chambered cover-slips (Labtek (Campbell, Calif.) or Fisher Scientific) 24 hours before treatment. For comparison of the centrosomal effects of treatment with Compound 1, Compound 1+Taxol, and Taxol, CHO-α-tubulin-YFP cells were treated with Compound 1, Compound 1+Taxol, Taxol, or equivalent concentrations of DMSO-containing media for various time periods before imaging. For comparison of the effects of Compound 1 and known proteasome inhibitors on centrosomes, the nucleus, and perinuclear regions, CHO-α-tubulin-YFP cells were treated with Compound 1, ALLN (Calbiochem, San Diego, Calif.), lactacystin (Calbiochem, San Diego, Calif.) or MG132 (Calbiochem, San Diego, Calif.), and imaged at various time points from 3 hours to 24 hours after treatment.
Tubulin-YFP fluorescence in living cells or fixed cells was captured using a standard filter for FITC and objectives of 20× or 60× magnification on a Nikon TE300 microscope with a Leica DC50 color digital camera (Leica, Bannockburn, Ill.) or a CoolSnap HQ Monochrome CCD camera (Photonetrics, Tucson, Ariz.). The Leica DC50 and CoolSnapHQ cameras were controlled with Leica DC50 software and MetaVue/MetaMorph software, respectively (Universal Imaging Corp, Downingtown, Pa.).
CHO-α-tubulin-YFP cells were cultured in 2-well chambered cover-slips (Labtek (Campbell, Calif.) or Fisher Scientific) 24 hours before treatment. For comparison of effects on the centrosome, nucleus, and perinuclear regions, cells were treated with Compound 1 and known proteasome inhibitors including ALLN, MG132, Lactacystin, MG115, clasto-Lactacystin β-Lactone (cLβL), and Epoxomicin (10 μM final concentration for all except ALLN, which was used at 100 μM final concentration) (proteasome inhibitors were from Calbiochem, San Diego, Calif.) and imaged at various time points up to 24 hours during treatment.
Tubulin-YFP fluorescence in living cells or fixed cells was captured using a standard filter for FITC and objectives of 20× or 60× magnification on the Nikon TE300 microscope/digital imaging system.

The subject of test [4] is MDA-435 breast cancer cells. The experiment in a line: Multi-ubiquitin Western blotting in MDA-435 cells. It counts as cell-based. Conditions: for increase of ubiquitinated proteins of the cell lysates: 500 nM. As to the method: Louis, Mo.) immediately before use, on ice for 1 hour. After scraping, the lysates were cleared by centrifugation at 13,000 RPM for 10 minutes at 4° C. Protein content was determined using a Bradford assay and bovine serum albumin as a standard (Bio-Rad Laboratories, Hercules, Calif.). Samples were solubilized by boiling in SDS sample buffer and subjected to SDS-PAGE. The proteins were subsequently transferred to a PVDF membrane (Bio-Rad, Hercules, Calif.). […] The alkaline phosphatase-conjugated secondary antibodies (Invitrogen, Carlsbad, Calif.) were diluted in blocking buffer and incubated with the blot for 1 hour at room temperature. The secondary antibodies were detected by the Western Breeze Chemiluminescent Kit (Invitrogen, Carlsbad, Calif.) and imaged using a Kodak 440 Image Station. Proteins targeted for degradation by the ubiquitin-dependent proteolytic pathway are tagged with multi-ubiquitin molecules. […] In this assay, accumulation of multi-ubiquitinated proteins in the cells is indicative of the impairment of proteasome activity.
In general terms: A western blot detects proteins with antibodies after separation by electrophoresis.

“Also recorded” adds a separate entry of the source. Non-standard residues stand in square brackets, D forms with d. Residues, ends and D or L forms follow the SMILES beside them. *: point of attachment. Nle = CCCC[C@H](N)C(=O)O; Cbz = O=C(OCc1ccccc1)*

Take `CCCC[C@@H](C=O)NC(=O)[C@H](CC(C)C)NC(=O)[C@H](CC(C)C)NC(C)=O` [ALLN] (Ac-Leu-Leu-[Nle]-aldehyde): the “proteasome inhibitory activity in vitro (overall statement)” value in test [1] is on record as “exhibited proteasome inhibitory activity”. Also, the “induction of Hsp70 expression” value in test [2] is listed as “unable to induce expression of Hsp70; also recorded: not capable of inducing Hsp70 expression”. In addition, the “percentage change in Hsp70 expression relative to DMSO control” value in test [2] (6 hours of treatment) is given as 82%. In addition, in test [2] (24 hours of treatment), the “percentage change in Hsp70 expression relative to DMSO control” value was determined as 137%. Further, in test [3] (CHO cells, 100 μM), the “accumulation of α-tubulin-YFP at the centrosomes” value was “accumulation of α-tubulin-YFP at the centrosomes and perinuclear regions”; the “accumulation of tubulin-YFP at the centrosomes” value is on record as “accumulation of tubulin-YFP at the centrosomes”. In test [3] (CHO cells, 100 μM, 8 hours post-treatment), the “accumulation of YFP-tubulin in the nucleus” value is on record as “caused the accumulation of YFP-tubulin in the nucleus”. Moreover, in test [3], the “accumulation of tubulin in the centrosomes (overall statement)” value was “caused accumulation of tubulin-YFP at the centrosomes and in the perinuclear region”; the “accumulation of tubulin at the centrosomes versus in the nucleus (overall statement)” value was “both accumulation of tubulin at the centrosomes and in the nucleus”.
`CC(C)C[C@@H](C=O)NC(=O)[C@H](CC(C)C)NC(=O)[C@H](CC(C)C)NC(=O)OCc1ccccc1` [MG132] (Cbz-Leu-Leu-Leu-aldehyde): in test [1], the “proteasome inhibitory activity in vitro (overall statement)” value is given as “exhibited proteasome inhibitory activity”. The “proteasome activity in vitro” value in test [1] (5 nM) is recorded as “detectable decrease in proteasome activity”. Further, the “induction of Hsp70 expression” value in test [2] is “not as potent an inducer as Compound 1; also recorded: also induced Hsp70 expression after 6 and 24 hours of treatment, but did so less potently than Compound 1 or Compound 1+Taxol”. For the same molecule, the “percentage change in Hsp70 expression relative to DMSO control” value in test [2] (6 hours of treatment) came out at 472%. The “percentage change in Hsp70 expression relative to DMSO control” value in test [2] (24 hours of treatment) was determined as 3016%. In test [4] (6 hours of treatment in cell culture), the “increase of ubiquitinated proteins of the cell lysates” value came out at 212.58. The “increase of ubiquitinated proteins of the cell lysates” value in test [4] (24 hours of treatment in cell culture) is on record as 357.82. Moreover, the “accumulation of multi-ubiquitinated proteins” value in test [4] (MDA-435 cells, 0.5 μM, 6 and 24 hours) was “caused similar accumulation of multi-ubiquitinated proteins”. Besides, in test [3] (CHO cells, 10 μM), the “accumulation of α-tubulin-YFP at the centrosomes” value was “accumulation of α-tubulin-YFP at the centrosomes and perinuclear regions”; the “accumulation of tubulin-YFP at the centrosomes” value was “accumulation of tubulin-YFP at the centrosomes”. In addition, the “accumulation of α-tubulin-YFP in the nucleus” value in test [3] (CHO cells, 10 μM, 8 hours post-treatment) is on record as “accumulation of α-tubulin-YFP in the nucleus; also recorded: caused the accumulation of YFP-tubulin in the nucleus”. Besides, in test [3], the “accumulation of tubulin in the centrosomes (overall statement)” value was “caused accumulation of tubulin-YFP at the centrosomes and in the perinuclear region”; the “accumulation of tubulin at the centrosomes versus in the nucleus (overall statement)” value is “both accumulation of tubulin at the centrosomes and in the nucleus”.
